Experimental data as given in patent US20120115774A1, “ANTIMICROBIAL CATIONIC LIPO-BETA-PEPTIDES” (UNIVERSITY OF MANITOBA, priority 2009, published 2012).
Values after ≈ are worked out from the molar mass of the structure shown. Like-named read-outs stand apart in the source and are kept apart here.

Tests used:
[1] = tested on: P. aeruginosa (Gent-R) CAN-ICU 62308; format: cell-based, Pseudomonas aeruginosa
Experimental: (§1) Antibacterial activity against Gram positive and Gram negative microorganisms was investigated via broth macrodilution tests using CLSI methodology (Zhanel et al., 2008). Stock solutions of lipopeptide antibiotics in water were brought to a standard 512 μg/mL, with only βC12-KLLK and βC16-KAAK requiring a minute amount of DMSO. Organisms were subcultured and isolated on blood agar, suspended in 3 mL of Mueller-Hinton broth at the turbidity of a […], and diluted to approximately 10^5 CFU/mL before introduction into tubes containing serially diluted lipopeptide antibiotic in Mueller-Hinton broth. Activity testing against S. pneumoniae used broth supplemented with laked horse blood to give 5% horse blood in experimental tubes. The turbidity resulting from lipopeptide solution in broth required the creation of control tubes lacking microbes serving as turbidity controls. All tubes were incubated overnight for 16-20 h at 37° C. Colony counts of diluted 10^5 CFU/mL solution of microorganism confirmed the validity of the trial with colony counts expected in the 10^5 CFU/mL range and also incubated overnight in a CO2 incubator at 37° C. and 5% CO2.

[2] = tested on: P. aeruginosa ATCC 27853; format: cell-based, Pseudomonas aeruginosa
Experimental: as §1

[3] = tested on: S. pneumoniae ATCC 49619; format: cell-based, Streptococcus pneumoniae
Experimental: as §1

[4] = tested on: E. faecium ATCC 27270; format: cell-based, Enterococcus faecium
Experimental: as §1

[5] = tested on: E. coli (Amikacin MIC 32 μg/mL) CAN-ICU 63074; format: cell-based
Experimental: as §1

[6] = tested on: E. coli (Gentamicin resistant-Gent R) CAN-ICU 61714; format: cell-based
Experimental: as §1

[7] = tested on: E. coli ATCC 25922; format: cell-based
Experimental: as §1

[8] = tested on: methicillin-resistant Staphylococcus aureus (MRSA) ATCC 33592; format: cell-based
Experimental: as §1

[9] = tested on: methicillin-resistant Staphylococcus epidermidis (MRSE) CAN-ICU 61589; format: cell-based
Experimental: as §1

[10] = tested on: A. baumannii CAN-ICU 63169; format: cell-based, Acinetobacter baumannii
Experimental: as §1

[11] = tested on: S. maltophilia CAN-ICU 62584; format: cell-based, Stenotrophomonas maltophilia
Experimental: as §1

[12] = tested on: S. aureus ATCC 29213; format: cell-based, Staphylococcus aureus
Experimental: as §1

[13] = tested on: E. faecalis ATCC 29212; format: cell-based, Enterococcus faecalis
Experimental: as §1

[14] = tested on: S. epidermidis ATCC 14990; format: cell-based, Staphylococcus epidermidis
Experimental: as §1

[15] = tested on: E. coli (Amikacin MIC 32 μg/mL) CAN-ICU 63074; conditions: strain description, clinical isolate of CAN-ICU study; cited from earlier work
[16] = tested on: K. pneumoniae ATCC 13883; format: cell-based, Klebsiella pneumoniae; conditions: Mueller-Hinton broth, 16-20 h at 37° C.
Experimental: as §1

[17] = tested on: methicillin-resistant Staphylococcus epidermidis (MRSE) CAN-ICU 61589; conditions: strain description, clinical isolate of CAN-ICU study; cited from earlier work
[18] = Amikacin MIC 32 μg/mL) CAN-ICU 63074
[19] = Gentamicin resistant-Gent R) CAN-ICU 61714
[20] = methicillin-resistant CAN-ICU 61589
[21] = Mueller-Hinton broth, 16-20 h at 37° C.

Row | Molecule | MIC, P. aeruginosa CAN-ICU 62308 ([1]; Gent-R) CAN-ICU 62308) | MIC, P. aeruginosa ATCC27853 ([2]; ATCC 27853) | MIC, S. pneumoniae ATCC49619 ([3]; ATCC 49619) | MIC, E. facium ATCC27270 [4] | MIC, E. coli CAN-ICU 63074 [5, 18] | MIC, E. coli CAN-ICU 61714 [6, 19] | MIC, E. coli ATCC25922 ([7]; ATCC 25922) | MIC, MRSA ATCC33592 ([8]; ATCC 33592) | MIC, MRSE CAN-ICU 61589 [9, 20] | MIC, A. baumannii CAN-ICU 63169 ([10]; CAN-ICU 63169) | MIC, S. maltophilia CAN-ICU 62584 ([11]; CAN-ICU 62584) | MIC, S. aureus ATCC29213 ([12]; ATCC 29213) | MIC, E. faecalis ATCC29212 [13] | MIC, S. epidermidis ATCC14990 ([14]; ATCC 14990) | also measured
1 | CCCCCCCCCCCC(=O)N[C@@H](CCCCN)CC(=O)N[C@H](CC(=O)N[C@H](CC(=O)N[C@@H](CCCCN)CC(N)=O)CC(C)C)CC(C)C [(β)C12-KLLK] | 128 µg/mL (≈ 173 µM) | 128 µg/mL (≈ 173 µM) | 128 µg/mL (≈ 173 µM) | 32 µg/mL (≈ 43.4 µM) | 64 µg/mL (≈ 86.7 µM) | 64 µg/mL (≈ 86.7 µM) | 64 µg/mL (≈ 86.7 µM) | 32 µg/mL (≈ 43.4 µM) | 32 µg/mL (≈ 43.4 µM) | >128 µg/mL | 256 µg/mL (≈ 347 µM) | 32 µg/mL (≈ 43.4 µM) | 64 µg/mL (≈ 86.7 µM) | 16 µg/mL (≈ 21.7 µM) | 
2 | CCCCCCCCCCCCCCCC(=O)N[C@@H](CCCCN)CC(=O)NCCC(=O)NCCC(=O)N[C@@H](CCCCN)CC(N)=O [(β)C16-KGGK] | >64 µg/mL | 64 µg/mL (≈ 93.8 µM) | 128 µg/mL (≈ 188 µM) | 32 µg/mL (≈ 46.9 µM) | 32 µg/mL (≈ 46.9 µM) | 32 µg/mL (≈ 46.9 µM) | 32 µg/mL (≈ 46.9 µM) | 32 µg/mL (≈ 46.9 µM) | 16 µg/mL (≈ 23.5 µM) | 128 µg/mL (≈ 188 µM) | 256 µg/mL (≈ 375 µM) | 16 µg/mL (≈ 23.5 µM) | 32 µg/mL (≈ 46.9 µM) | 8 µg/mL (≈ 11.7 µM) | 
3 | NCC[C@H](O)C(=O)N[C@@H]1C[C@H](N)[C@@H](O[C@H]2O[C@H](CN)[C@@H](O)[C@H](O)[C@H]2O)[C@H](O)[C@H]1O[C@H]1O[C@H](CO)[C@@H](O)[C@H](N)[C@H]1O [Amikacin] |  |  |  |  |  |  |  |  |  |  |  |  |  |  | Amikacin MIC of E. coli CAN-ICU 63074 [15]: 32 µg/mL
4 | Gentamicin [reference compound] |  |  |  |  |  |  |  |  |  |  |  |  |  |  | MIC, P. aeruginosa CAN-ICU 62308 ([1]; Gent-R strain, Mueller-Hinton broth, 16-20 h at 37° C.): 128 µg/mL; MIC, P. aeruginosa ATCC27853 [2, 21]: 8 µg/mL; MIC, S. pneumoniae ATCC49619 ([3]; broth supplemented with laked horse blood (5% horse blood), 16-20 h at 37° C.): 4 µg/mL; MIC, S. pneumoniae ATCC13883 [16]: 0.25 µg/mL; MIC, E. coli CAN-ICU 63074 [5, 21]: 8 µg/mL; MIC, E. coli CAN-ICU 61714 ([6]; Gentamicin resistant strain, Mueller-Hinton broth, 16-20 h at 37° C.): 128 µg/mL; MIC, E. coli ATCC25922 [7, 21]: 1 µg/mL; MIC, MRSA ATCC33592 [8, 21]: 2 µg/mL; MIC, MRSE CAN-ICU 61589 [9, 21]: 32 µg/mL; MIC, A. baumannii CAN-ICU 63169 [10, 21]: 128 µg/mL; MIC, S. maltophilia CAN-ICU 62584 [11, 21]: >512 µg/mL; MIC, S. aureus ATCC29213 [12, 21]: 1 µg/mL; MIC, S. epidermidis ATCC14990 [14, 21]: 0.25 µg/mL
5 | CCCCCCCCCCCCCCCC(=O)N[C@@H](CCCCN)CC(=O)N[C@@H](CCCCN)CC(=O)N[C@@H](CCCCN)CC(=O)N[C@@H](CCCCN)CC(N)=O [(β)C16-KKKK] | 128 µg/mL (≈ 155 µM) | 64 µg/mL (≈ 77.6 µM) | 128 µg/mL (≈ 155 µM) | 16 µg/mL (≈ 19.4 µM) | 32 µg/mL (≈ 38.8 µM) | 32 µg/mL (≈ 38.8 µM) | 16 µg/mL (≈ 19.4 µM) | 16 µg/mL (≈ 19.4 µM) | 4 µg/mL (≈ 4.85 µM) | 256 µg/mL (≈ 311 µM) | 256 µg/mL (≈ 311 µM) | 16 µg/mL (≈ 19.4 µM) | 32 µg/mL (≈ 38.8 µM) | 4 µg/mL (≈ 4.85 µM) | 
6 | Cc1nnc(SCC2=C(C(=O)O)N3C(=O)[C@@H](NC(=O)Cn4cnnn4)[C@H]3SC2)s1 [Cefazolin] |  |  |  |  |  |  |  |  |  |  |  |  |  |  | Cefazolin-CZ MIC of MRSE CAN-ICU 61589 [17]: > 32 µg/mL
7 | CCCCCCCCCCCCCCCC(=O)N[C@@H](CCCCN)CC(=O)N[C@@H](C)CC(=O)N[C@@H](C)CC(=O)N[C@@H](CCCCN)CC(N)=O [(β)C16-KAAK] | 128 µg/mL (≈ 180 µM) | 256 µg/mL (≈ 361 µM) | >64 µg/mL | 32 µg/mL (≈ 45.1 µM) | 64 µg/mL (≈ 90.1 µM) | 64 µg/mL (≈ 90.1 µM) | 64 µg/mL (≈ 90.1 µM) | 32 µg/mL (≈ 45.1 µM) | 16 µg/mL (≈ 22.5 µM) | 256 µg/mL (≈ 361 µM) | >128 µg/mL | 64 µg/mL (≈ 90.1 µM) | 32 µg/mL (≈ 45.1 µM) | 8 µg/mL (≈ 11.3 µM) | 
